In paper PMC9090415, “Discovery of small molecule inhibitors of Plasmodium falciparum apicoplast DNA polymerase” (Journal of Enzyme Inhibition and Medicinal Chemistry, 2022):

Target: T1, bacteriophage T4 DNA polymerase (Enterobacteria phage T4, UniProt P04415)
T1 construct: made in house
T1 sequence (P04415 1-898): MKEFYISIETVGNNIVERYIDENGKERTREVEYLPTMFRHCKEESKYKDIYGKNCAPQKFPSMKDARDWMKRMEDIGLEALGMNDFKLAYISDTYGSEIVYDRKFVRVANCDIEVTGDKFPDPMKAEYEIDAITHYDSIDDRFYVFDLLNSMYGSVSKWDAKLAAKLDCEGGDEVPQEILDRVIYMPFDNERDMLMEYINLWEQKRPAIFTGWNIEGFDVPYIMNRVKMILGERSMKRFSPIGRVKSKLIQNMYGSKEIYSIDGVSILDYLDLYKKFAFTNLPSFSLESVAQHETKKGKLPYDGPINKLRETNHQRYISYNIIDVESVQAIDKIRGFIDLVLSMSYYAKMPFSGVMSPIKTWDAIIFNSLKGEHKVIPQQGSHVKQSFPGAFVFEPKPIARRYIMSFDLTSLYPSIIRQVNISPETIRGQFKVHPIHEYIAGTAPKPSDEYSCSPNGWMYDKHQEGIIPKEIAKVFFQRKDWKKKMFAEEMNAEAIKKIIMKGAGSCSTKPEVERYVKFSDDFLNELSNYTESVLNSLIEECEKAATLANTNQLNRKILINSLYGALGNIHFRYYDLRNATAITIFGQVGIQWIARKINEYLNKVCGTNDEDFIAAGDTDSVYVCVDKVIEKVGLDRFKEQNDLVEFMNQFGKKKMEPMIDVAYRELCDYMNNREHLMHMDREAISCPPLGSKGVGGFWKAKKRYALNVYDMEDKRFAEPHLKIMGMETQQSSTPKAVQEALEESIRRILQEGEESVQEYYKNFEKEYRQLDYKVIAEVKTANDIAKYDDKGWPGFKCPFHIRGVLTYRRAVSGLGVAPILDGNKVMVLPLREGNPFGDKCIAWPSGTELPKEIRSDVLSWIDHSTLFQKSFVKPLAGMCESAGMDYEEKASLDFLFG
Experiment: Counter-screen against bacteriophage T4 DNA polymerase
Format: biochemical
Conditions: for % inhibition T4 10' 2.5 / % inhibition T4 10' 5 / % inhibition T4 10' 10 / % inhibition T4 10' 20 / % inhibition T4 10' 40 / % inhibition T4 10' 80: read at 10'; for % inhibition T4 10' 10 / % inhibition T4 70' 10 / % inhibition T4 130' 10 / % inhibition T4 40' 10 / % inhibition T4 90' 10 / % inhibition T4 180' 10: concentration 10; for % inhibition T4 10' 80 / % inhibition T4 70' 80 / % inhibition T4 130' 80 / % inhibition T4 40' 80 / % inhibition T4 90' 80 / % inhibition T4 180' 80: concentration 80; for % inhibition T4 70' 2.5 / % inhibition T4 70' 5 / % inhibition T4 70' 10 / % inhibition T4 70' 20 / % inhibition T4 70' 40 / % inhibition T4 70' 80: read at 70'; for % inhibition T4 130' 2.5 / % inhibition T4 130' 5 / % inhibition T4 130' 10 / % inhibition T4 130' 20 / % inhibition T4 130' 40 / % inhibition T4 130' 80: read at 130'; for % inhibition T4 40' 2.5 / % inhibition T4 40' 5 / % inhibition T4 40' 10 / % inhibition T4 40' 20 / % inhibition T4 40' 40 / % inhibition T4 40' 80: read at 40'; for % inhibition T4 90' 2.5 / % inhibition T4 90' 5 / % inhibition T4 90' 10 / % inhibition T4 90' 20 / % inhibition T4 90' 40 / % inhibition T4 90' 80: read at 90'; for % inhibition T4 180' 2.5 / % inhibition T4 180' 5 / % inhibition T4 180' 10 / % inhibition T4 180' 20 / % inhibition T4 180' 40 / % inhibition T4 180' 80: read at 180'
How it was run: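 IC50 values come from dose-response testing of each compound against T4 DNA polymerase. This B-family polymerase was purified in-house and used as the counter-screen.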

## Cn1nc(-c2nc(-c3ccccc3)no2)c2c1CCN(C(=O)Cc1cccs1)C2 [Molecule 58, O=C(N1CCc2c(C1)c(nn2C)c1onc(n1)c1ccccc1)Cc1cccs1]
DRC-1, concentration 2.5
  % inhibition T4 10' 2.5: 2%
  % inhibition T4 70' 2.5: -0.863%
  % inhibition T4 130' 2.5: -2.41%
DRC-1, concentration 5
  % inhibition T4 10' 5: 6%
  % inhibition T4 70' 5: 0.684%
  % inhibition T4 130' 5: -0.486%
DRC-1
  % inhibition T4 10' 10: 20%
  % inhibition T4 10' 80: 33%
  % inhibition T4 70' 10: 13%
  % inhibition T4 70' 80: 37%
  % inhibition T4 130' 10: 9%
  % inhibition T4 130' 80: 33%
DRC-1, concentration 20
  % inhibition T4 10' 20: 24%
  % inhibition T4 70' 20: 17%
  % inhibition T4 130' 20: 14%
DRC-1, concentration 40
  % inhibition T4 10' 40: 35%
  % inhibition T4 70' 40: 26%
  % inhibition T4 130' 40: 24%
DRC-2, concentration 2.5
  % inhibition T4 10' 2.5: 2.64%
  % inhibition T4 40' 2.5: 2.18%
  % inhibition T4 90' 2.5: 2.76%
  % inhibition T4 180' 2.5: -1.52%
DRC-2, concentration 5
  % inhibition T4 10' 5: 8%
  % inhibition T4 40' 5: 6.41%
  % inhibition T4 90' 5: 7%
  % inhibition T4 180' 5: 1.9%
DRC-2
  % inhibition T4 10' 10: 17%
  % inhibition T4 10' 80: 20%
  % inhibition T4 40' 10: 17%
  % inhibition T4 40' 80: 25%
  % inhibition T4 90' 10: 17%
  % inhibition T4 90' 80: 22%
  % inhibition T4 180' 10: 13%
  % inhibition T4 180' 80: 20%
DRC-2, concentration 20
  % inhibition T4 10' 20: 20%
  % inhibition T4 40' 20: 22%
  % inhibition T4 90' 20: 21%
  % inhibition T4 180' 20: 15%
DRC-2, concentration 40
  % inhibition T4 10' 40: 23%
  % inhibition T4 40' 40: 27%
  % inhibition T4 90' 40: 24%
  % inhibition T4 180' 40: 20%

## O=C1CSC2=NC3=C(CCc4ccccc43)C(c3cccs3)N12 (centres unmarked) [Molecule 59, O=C1CSC2=NC3=C(C(N12)c1cccs1)CCc1c3cccc1]
DRC-1, concentration 2.5
  % inhibition T4 10' 2.5: 10.0127%
  % inhibition T4 70' 2.5: 9.951%
  % inhibition T4 130' 2.5: 7.352%
DRC-1, concentration 5
  % inhibition T4 10' 5: 9.284%
  % inhibition T4 70' 5: 10.6029%
  % inhibition T4 130' 5: 7.713%
DRC-1
  % inhibition T4 10' 10: 14.9012%
  % inhibition T4 10' 80: 22.8817%
  % inhibition T4 70' 10: 14.1389%
  % inhibition T4 70' 80: 18.0959%
  % inhibition T4 130' 10: 10.7499%
  % inhibition T4 130' 80: 16.7896%
DRC-1, concentration 20
  % inhibition T4 10' 20: 17.5613%
  % inhibition T4 70' 20: 13.8668%
  % inhibition T4 130' 20: 9.8688%
DRC-1, concentration 40
  % inhibition T4 10' 40: 23.9437%
  % inhibition T4 70' 40: 19.0347%
  % inhibition T4 130' 40: 15.3496%
DRC-2, concentration 2.5
  % inhibition T4 10' 2.5: 31%
  % inhibition T4 40' 2.5: 31%
  % inhibition T4 90' 2.5: 30%
  % inhibition T4 180' 2.5: 24%
DRC-2, concentration 5
  % inhibition T4 10' 5: 18%
  % inhibition T4 40' 5: 18%
  % inhibition T4 90' 5: 18%
  % inhibition T4 180' 5: 15%
DRC-2
  % inhibition T4 10' 10: 6.37%
  % inhibition T4 10' 80: 11%
  % inhibition T4 40' 10: 6.37%
  % inhibition T4 40' 80: 11%
  % inhibition T4 90' 10: 8%
  % inhibition T4 90' 80: 11%
  % inhibition T4 180' 10: 5%
  % inhibition T4 180' 80: 9%
DRC-2, concentration 20
  % inhibition T4 10' 20: 8%
  % inhibition T4 40' 20: 8%
  % inhibition T4 90' 20: 8%
  % inhibition T4 180' 20: 4%
DRC-2, concentration 40
  % inhibition T4 10' 40: 6%
  % inhibition T4 40' 40: 6%
  % inhibition T4 90' 40: 6.37%
  % inhibition T4 180' 40: 5.53%

## Cc1cc2[nH]c(C(=O)Nc3ccc(F)cc3)c(CN3CCOCC3)c2s1 [Molecule 60, Fc1ccc(cc1)NC(=O)c1[nH]c2c(c1CN1CCOCC1)sc(c2)C]
DRC-1, concentration 2.5
  % inhibition T4 10' 2.5: 1.711%
  % inhibition T4 70' 2.5: 0.0854%
  % inhibition T4 130' 2.5: -1.799%
DRC-1, concentration 5
  % inhibition T4 10' 5: 9.215%
  % inhibition T4 70' 5: 3.336%
  % inhibition T4 130' 5: 0.5371%
DRC-1
  % inhibition T4 10' 10: 21.452%
  % inhibition T4 10' 80: 40.6852%
  % inhibition T4 70' 10: 13.8719%
  % inhibition T4 70' 80: 27.0179%
  % inhibition T4 130' 10: 9.245%
  % inhibition T4 130' 80: 22.3923%
DRC-1, concentration 20
  % inhibition T4 10' 20: 34.4714%
  % inhibition T4 70' 20: 20.2889%
  % inhibition T4 130' 20: 15.4607%
DRC-1, concentration 40
  % inhibition T4 10' 40: 38.1099%
  % inhibition T4 70' 40: 27.4388%
  % inhibition T4 130' 40: 21.1797%
DRC-2, concentration 2.5
  % inhibition T4 10' 2.5: 5.28%
  % inhibition T4 40' 2.5: 3.64%
  % inhibition T4 90' 2.5: 4%
  % inhibition T4 180' 2.5: -1.07%
DRC-2, concentration 5
  % inhibition T4 10' 5: 2.77%
  % inhibition T4 40' 5: 2.11%
  % inhibition T4 90' 5: 2.34%
  % inhibition T4 180' 5: -2.8%
DRC-2
  % inhibition T4 10' 10: 13%
  % inhibition T4 10' 80: 25%
  % inhibition T4 40' 10: 12%
  % inhibition T4 40' 80: 27%
  % inhibition T4 90' 10: 12%
  % inhibition T4 90' 80: 25%
  % inhibition T4 180' 10: 6%
  % inhibition T4 180' 80: 23%
DRC-2, concentration 20
  % inhibition T4 10' 20: 21%
  % inhibition T4 40' 20: 21%
  % inhibition T4 90' 20: 19%
  % inhibition T4 180' 20: 13%
DRC-2, concentration 40
  % inhibition T4 10' 40: 25%
  % inhibition T4 40' 40: 26%
  % inhibition T4 90' 40: 24%
  % inhibition T4 180' 40: 20%

## C#CC(C=CC)OC(=O)c1ccccc1C(=O)O (centres unmarked) [Molecule 61, CC=CC(OC(=O)c1ccccc1C(=O)O)C#C]
DRC-1, concentration 2.5
  % inhibition T4 10' 2.5: 9.3785%
  % inhibition T4 70' 2.5: 5.999%
  % inhibition T4 130' 2.5: 3.358%
DRC-1, concentration 5
  % inhibition T4 10' 5: 11.31%
  % inhibition T4 70' 5: 5.822%
  % inhibition T4 130' 5: 2.079%
DRC-1
  % inhibition T4 10' 10: 22.4398%
  % inhibition T4 10' 80: 28.2741%
  % inhibition T4 70' 10: 15.1139%
  % inhibition T4 70' 80: 16.7862%
  % inhibition T4 130' 10: 10.4202%
  % inhibition T4 130' 80: 12.4594%
DRC-1, concentration 20
  % inhibition T4 10' 20: 21.3205%
  % inhibition T4 70' 20: 11.2187%
  % inhibition T4 130' 20: 6.447%
DRC-1, concentration 40
  % inhibition T4 10' 40: 28.2089%
  % inhibition T4 70' 40: 17.6446%
  % inhibition T4 130' 40: 13.4652%
DRC-2, concentration 2.5
  % inhibition T4 10' 2.5: -4.4%
  % inhibition T4 40' 2.5: -4.37%
  % inhibition T4 90' 2.5: -3.79%
  % inhibition T4 180' 2.5: -5.62%
DRC-2, concentration 5
  % inhibition T4 10' 5: -3%
  % inhibition T4 40' 5: -3.69%
  % inhibition T4 90' 5: -6%
  % inhibition T4 180' 5: -11%
DRC-2
  % inhibition T4 10' 10: 4%
  % inhibition T4 10' 80: 8%
  % inhibition T4 40' 10: 2%
  % inhibition T4 40' 80: 4.65%
  % inhibition T4 90' 10: 0.277%
  % inhibition T4 90' 80: 0.315%
  % inhibition T4 180' 10: -7%
  % inhibition T4 180' 80: -3.3%
DRC-2, concentration 20
  % inhibition T4 10' 20: 6.52%
  % inhibition T4 40' 20: 3.35%
  % inhibition T4 90' 20: 0.217%
  % inhibition T4 180' 20: -5.56%
DRC-2, concentration 40
  % inhibition T4 10' 40: 12%
  % inhibition T4 40' 40: 9%
  % inhibition T4 90' 40: 6%
  % inhibition T4 180' 40: -0.544%

## O=C(c1c[nH]c2ncccc12)N1CCCC1 [Molecule 63, O=C(c1c[nH]c2c1cccn2)N1CCCC1]
DRC-2, concentration 20
  % inhibition T4 10': 25%
  % inhibition T4 40': 25%
DRC-2, concentration 40
  % inhibition T4 10': 31%
  % inhibition T4 90': 31%

## O=C1c2ccccc2C(=O)N1Oc1ccc([N+](=O)[O-])c([N+](=O)[O-])c1 [Molecule 66, O=N(=O)c1cc(ccc1N(=O)=O)ON1C(=O)c2c(C1=O)cccc2]
DRC-2, concentration 2.5
  % inhibition T4 10': -5%
  % inhibition T4 40': -5%
DRC-2, concentration 5
  % inhibition T4 10': -4%
  % inhibition T4 90': -4%
